In the assay the target is T1, Trx-6×His-BCL6 (human BCL6 BTB domain covering amino-acid sequence 5-129) (Homo sapiens, UniProt P41182).
T1 construct: made in house
The experiment in a line: HTRF assay (BCL6 / BCOR peptide). Format: binding. The settings on record: 1 nM Trx-6×His-BCL6, 300 nM BCOR-AF633 peptide, 2 hours incubation at room temperature; read-out: HTRF avg pIC50 (converted). The method, then: After 2 hours incubation at room temperature the plate was read on a Pherastar FSX (BMG Labtech) plate reader equipped with 337 nm laser excitation filter, a first emission filter at 620 nm and a second emission filter at 665 nm. The % inhibition at each concentration was calculated by normalising FRET ratio to the appropriate high (DMSO with all reagents) and low (DMSO without BCL6) controls.

Each structure is given as a SMILES string.

In the case of `C[C@@H]1CCN(c2ncc(Cl)c(Nc3ccc4c(c3)c3c(c(=O)n4C)OCC(F)(F)[C@H](C4CC4)N3)n2)C1` [Example 12x02, (S)-10-((5-chloro-2-((R)-3-methylpyrrolidin-1-yl)pyrimidin-4-yl)amino)-2-cyclopropyl-3,3-difluoro-7-methyl-1,2,3,4-tetrahydro-[1,4]oxazepino[2,3-c]quinolin-6(7H)-one], the IC50 was 21.4 nM.

For `C[C@H]1C[C@@H](F)CN(c2ncc(Cl)c(Nc3ccc4c(c3)c3c(c(=O)n4C)OCC(F)(F)[C@H](C4CC4)N3)n2)C1` [Example 12x03, (S)-10-((5-chloro-2-((3R,5S)-3-fluoro-5-methylpiperidin-1-yl)pyrimidin-4-yl)amino)-2-cyclopropyl-3,3-difluoro-7-methyl-1,2,3,4-tetrahydro-[1,4]oxazepino[2,3-c]quinolin-6(7H)-one], the IC50 is 15.5 nM.

In the case of `CO[C@@H]1C[C@H](C)CN(c2ncc(Cl)c(Nc3ccc4c(c3)c3c(c(=O)n4C)OCC(F)(F)[C@H](C4CC4)N3)n2)C1` [Example 12x05, (S)-10-((5-chloro-2-((3R,5S)-3-methoxy-5-methylpiperidin-1-yl)pyrimidin-4-yl)amino)-2-cyclopropyl-3,3-difluoro-7-methyl-1,2,3,4-tetrahydro-[1,4]oxazepino[2,3-c]quinolin-6(7H)-one], the IC50 is 3.72 nM.

Regarding `CC1CN(c2ncc(Cl)c(Nc3ccc4c(c3)c3c(c(=O)n4C)OCC(F)(F)[C@H](C4CC4)N3)n2)CC(C)S1` (stereo partly drawn) [Example 12x06, (2S)-10-((5-chloro-2-(2,6-dimethylthiomorpholino)pyrimidin-4-yl)amino)-2-cyclopropyl-3,3-difluoro-7-methyl-1,2,3,4-tetrahydro-[1,4]oxazepino[2,3-c]quinolin-6(7H)-one], the IC50 is 30.2 nM.

For the compound `CC1CCCN(c2ncc(Cl)c(Nc3ccc4c(c3)c3c(c(=O)n4C)OCC(F)(F)[C@H](C4CC4)N3)n2)C1C` (stereo partly drawn) [Example 12x08, (2S)-10-((5-chloro-2-(2,3-dimethylpiperidin-1-yl)pyrimidin-4-yl)amino)-2-cyclopropyl-3,3-difluoro-7-methyl-1,2,3,4-tetrahydro-[1,4]oxazepino[2,3-c]quinolin-6(7H)-one], the IC50 was 58.9 nM.

Turning to `CC1CN(c2ncc(Cl)c(Nc3ccc4c(c3)c3c(c(=O)n4C)OCC(F)(F)[C@H](C4CC4)N3)n2)CC(C)[S+]1[O-]` (stereo partly drawn) [Example 12x09, (2S)-10-((5-chloro-2-(2,6-dimethyl-1-oxidothiomorpholino)pyrimidin-4-yl)amino)-2-cyclopropyl-3,3-difluoro-7-methyl-1,2,3,4-tetrahydro-[1,4]oxazepino[2,3-c]quinolin-6(7H)-one], the IC50 was 1.7 nM.

Regarding `CC1CCC(CO)N(c2ncc(Cl)c(Nc3ccc4c(c3)c3c(c(=O)n4C)OCC(F)(F)[C@H](C4CC4)N3)n2)C1` (stereo partly drawn) [Example 12x10, (2S)-10-((5-chloro-2-(2-(hydroxymethyl)-5-methylpiperidin-1-yl)pyrimidin-4-yl)amino)-2-cyclopropyl-3,3-difluoro-7-methyl-1,2,3,4-tetrahydro-[1,4]oxazepino[2,3-c]quinolin-6(7H)-one], the IC50 is 11.7 nM.

Take `CC1CN(c2ncc(Cl)c(Nc3ccc4c(c3)c3c(c(=O)n4C)OCC(F)(F)[C@H](C4CC4)N3)n2)CC(C)S1(=O)=O` (stereo partly drawn) [Example 12x11, (2S)-10-((5-chloro-2-(2,6-dimethyl-1,1-dioxidothiomorpholino)pyrimidin-4-yl)amino)-2-cyclopropyl-3,3-difluoro-7-methyl-1,2,3,4-tetrahydro-[1,4]oxazepino[2,3-c]quinolin-6(7H)-one]: the IC50 is 1.62 nM.

For `CC1CCC(C)N(c2ncc(Cl)c(Nc3ccc4c(c3)c3c(c(=O)n4C)OCC(F)(F)[C@H](C4CC4)N3)n2)C1` (stereo partly drawn) [Example 12x12, (2S)-10-((5-chloro-2-(2,5-dimethylpiperidin-1-yl)pyrimidin-4-yl)amino)-2-cyclopropyl-3,3-difluoro-7-methyl-1,2,3,4-tetrahydro-[1,4]oxazepino[2,3-c]quinolin-6(7H)-one], the IC50 is 56.2 nM.

Take `C[C@H]1C[C@H](O)CN(c2ncc(Cl)c(Nc3ccc4c(c3)c3c(c(=O)n4C)OCC(F)(F)[C@H](C4CC4)N3)n2)C1` [Example 12x13, (S)-10-((5-chloro-2-((3S,5S)-3-hydroxy-5-methylpiperidin-1-yl)pyrimidin-4-yl)amino)-2-cyclopropyl-3,3-difluoro-7-methyl-1,2,3,4-tetrahydro-[1,4]oxazepino[2,3-c]quinolin-6(7H)-one]: the IC50 was 5.62 nM.

In the case of `Cn1c(=O)c2c(c3cc(Nc4nc(N5CCNCC(O)C5)ncc4Cl)ccc31)N[C@@H](C1CC1)C(F)(F)CO2` (stereo partly drawn) [Example 12x14, (2S)-10-((5-chloro-2-(6-hydroxy-1,4-diazepan-1-yl)pyrimidin-4-yl)amino)-2-cyclopropyl-3,3-difluoro-7-methyl-1,2,3,4-tetrahydro-[1,4]oxazepino[2,3-c]quinolin-6(7H)-one], the IC50 is 3.47 nM.

Take `[2H]C([2H])([2H])N1CCN(c2ncc(Cl)c(Nc3ccc4c(c3)c3c(c(=O)n4C)OCC(F)(F)[C@H](C4CC4)N3)n2)CC(O)C1` (stereo partly drawn) [Example 12x15-d3, (2S)-10-((5-chloro-2-(6-hydroxy-4-(methyl-d3)-1,4-diazepan-1-yl)pyrimidin-4-yl)amino)-2-cyclopropyl-3,3-difluoro-7-methyl-1,2,3,4-tetrahydro-[1,4]oxazepino[2,3-c]quinolin-6(7H)-one]: the IC50 was 1.78 nM.

As to `C#CC1CCCN(c2ncc(Cl)c(Nc3ccc4c(c3)c3c(c(=O)n4C)OCC(F)(F)[C@H](C4CC4)N3)n2)C1` (stereo partly drawn) [Example 12x22, (2S)-10-((5-chloro-2-(3-ethynylpiperidin-1-yl)pyrimidin-4-yl)amino)-2-cyclopropyl-3,3-difluoro-7-methyl-1,2,3,4-tetrahydro-[1,4]oxazepino[2,3-c]quinolin-6(7H)-one], the IC50 is 22.9 nM.

In the case of `Cn1c(=O)c2c(c3cc(Nc4nc(N5CCCC(C#N)C5)ncc4Cl)ccc31)N[C@@H](C1CC1)C(F)(F)CO2` (stereo partly drawn) [Example 12x23, 1-(5-chloro-4-(((S)-2-cyclopropyl-3,3-difluoro-7-methyl-6-oxo-1,2,3,4,6,7-hexahydro-[1,4]oxazepino[2,3-c]quinolin-10-yl)amino)pyrimidin-2-yl)piperidine-3-carbonitrile], the IC50 was 5.13 nM.

Turning to `Cn1c(=O)c2c(c3cc(Nc4nc(NC5CCC(F)(F)CC5)ncc4Cl)ccc31)N[C@@H](C1CC1)C(F)(F)CO2` [Example 12x24, (S)-10-((5-chloro-2-((4,4-difluorocyclohexyl)amino)pyrimidin-4-yl)amino)-2-cyclopropyl-3,3-difluoro-7-methyl-1,2,3,4-tetrahydro-[1,4]oxazepino[2,3-c]quinolin-6(7H)-one], the IC50 is 14.5 nM.

On to `Cn1c(=O)c2c(c3cc(Nc4nc(N5CCCC6CC65)ncc4Cl)ccc31)N[C@@H](C1CC1)C(F)(F)CO2` (stereo partly drawn) [Example 12x25, (2S)-10-((2-(2-azabicyclo[4.1.0]heptan-2-yl)-5-chloropyrimidin-4-yl)amino)-2-cyclopropyl-3,3-difluoro-7-methyl-1,2,3,4-tetrahydro-[1,4]oxazepino[2,3-c]quinolin-6(7H)-one], for which the IC50 was 15.8 nM.

As to `Cn1c(=O)c2c(c3cc(Nc4nc(N5CCNC(C(F)F)C5)ncc4Cl)ccc31)N[C@@H](C1CC1)C(F)(F)CO2` (stereo partly drawn) [Example 12x26, (2S)-10-((5-chloro-2-(3-(difluoromethyl)piperazin-1-yl)pyrimidin-4-yl)amino)-2-cyclopropyl-3,3-difluoro-7-methyl-1,2,3,4-tetrahydro-[1,4]oxazepino[2,3-c]quinolin-6(7H)-one], the IC50 is 1.91 nM.

As to `C[C@H]1C[C@@H](OCCN(C)C)CN(c2ncc(Cl)c(Nc3ccc4c(c3)c3c(c(=O)n4C)OCC(F)(F)[C@H](C4CC4)N3)n2)C1` [Example 12x28, (S)-10-((5-chloro-2-((3R,5S)-3-(2-(dimethylamino)ethoxy)-5-methylpiperidin-1-yl)pyrimidin-4-yl)amino)-2-cyclopropyl-3,3-difluoro-7-methyl-1,2,3,4-tetrahydro-[1,4]oxazepino[2,3-c]quinolin-6(7H)-one], the IC50 was 3.16 nM.

For `CC1CC(C(=O)N2CCC2)CN(c2ncc(Cl)c(Nc3ccc4c(c3)c3c(c(=O)n4C)OCC(F)(F)[C@H](C4CC4)N3)n2)C1` (stereo partly drawn) [Example 12x30, (2S)-10-((2-(3-(azetidine-1-carbonyl)-5-methylpiperidin-1-yl)-5-chloropyrimidin-4-yl)amino)-2-cyclopropyl-3,3-difluoro-7-methyl-1,2,3,4-tetrahydro-[1,4]oxazepino[2,3-c]quinolin-6(7H)-one], the IC50 is 2 nM.

As for `CC1CC(C(=O)N2CC(F)(F)C2)CN(c2ncc(Cl)c(Nc3ccc4c(c3)c3c(c(=O)n4C)OCC(F)(F)[C@H](C4CC4)N3)n2)C1` (stereo partly drawn) [Example 12x31, (2S)-10-((5-chloro-2-(3-(3,3-difluoroazetidine-1-carbonyl)-5-methylpiperidin-1-yl)pyrimidin-4-yl)amino)-2-cyclopropyl-3,3-difluoro-7-methyl-1,2,3,4-tetrahydro-[1,4]oxazepino[2,3-c]quinolin-6(7H)-one], the IC50 is 3.8 nM.

Take `Cn1c(=O)c2c(c3cc(Nc4nc(N5CC(CO)C5)ncc4Cl)ccc31)N[C@@H](C1CC1)C(F)(F)CO2` [Example 12x32, (S)-10-((5-chloro-2-(3-(hydroxymethyl)azetidin-1-yl)pyrimidin-4-yl)amino)-2-cyclopropyl-3,3-difluoro-7-methyl-1,2,3,4-tetrahydro-[1,4]oxazepino[2,3-c]quinolin-6(7H)-one]: the IC50 was 3.72 nM.

In the case of `Cn1c(=O)c2c(c3cc(Nc4nc(N5CC[C@H]5CO)ncc4Cl)ccc31)N[C@@H](C1CC1)C(F)(F)CO2` [Example 12x33a, (S)-10-((5-chloro-2-((S)-2-(hydroxymethyl)azetidin-1-yl)pyrimidin-4-yl)amino)-2-cyclopropyl-3,3-difluoro-7-methyl-1,2,3,4-tetrahydro-[1,4]oxazepino[2,3-c]quinolin-6(7H)-one], the IC50 is 2.14 nM.

The values above are taken from patent US12528826B2, “[1,4]oxazepino[2,3-c]quinolinone derivatives as BCL6 inhibitors” (Cancer Research Technology Limited, priority 2019, dated 2026).
